One data set has as its system parasitaemia. Further details: method as in Baragana et al Nature, 2015,522,315. As to conditions: at 0.57 mg/kg; ref Baragana et al Nature, 2015,522,315; cited from earlier work.
Data set [1] relates to hepatic cell line (HepG2). The data set can be described thus: cytotoxicity on hepatic cell line (literature). The format is cell-based.
Data set [2] deals with adult Schistosoma mansoni. The following applies: no longer toxic at 1 μM; cited from earlier work.
For data set [3], the system named is hepatic cell line (HepG2). As to conditions: cited from earlier work.

Structures are written as SMILES.

Consider `O=C(NCCN1CCCC1)c1cc(-c2ccc(CN3CCOCC3)cc2)nc2ccc(F)cc12` [DDD107498], for which the reduction in parasitaemia in the data set on parasitaemia was 90%.
One may read the IC50 as the concentration at which inhibition is half-maximal. For `O=C(C1CCCCC1)N1CC(=O)N2CCc3ccccc3C2C1` (centres unmarked) [praziquantel], the selectivity index in data set [1] (HepG2 IC50 with respect to adult worms treated in vitro with 5 µM) is given as 33; in data set [1] (HepG2 IC50 with respect to adult worms treated in vitro with 10 µM) it was 16.5. Besides, the “concentration toxic for schistosomes in vitro” value in data set [2] is 5 to 10 µM. Moreover, in data set [3], the half-inhibitory concentration (IC50) is 165 µM.

Values taken from PMC5321741, “Arylmethylamino steroids as antiparasitic agents” (Nature Communications, 2017).
